Literature values in US6610297B1, “Peptide immunogens for vaccination against and treatment of allergy” (Novartis AG, priority 1996, dated 2003).
pKd: −log10 of the molar value.

Molecular target: T1, FcεRI (Homo sapiens, UniProt P12319)
T1 sequence (P12319 26-257): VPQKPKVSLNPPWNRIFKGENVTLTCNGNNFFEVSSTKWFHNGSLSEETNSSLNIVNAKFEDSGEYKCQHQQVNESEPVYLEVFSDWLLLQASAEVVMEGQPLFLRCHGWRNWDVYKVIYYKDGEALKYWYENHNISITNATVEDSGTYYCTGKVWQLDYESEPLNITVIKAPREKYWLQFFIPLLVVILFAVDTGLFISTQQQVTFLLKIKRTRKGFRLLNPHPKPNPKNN
Details: read-out: affinity of IgE for FcεRI (Kd); cited from earlier work

For immunoglobulin E [IgE], the pKd is given as ~10.00.
